Here are results for three molecules from patent US10588972B2, “Phthalocyanine probes and uses thereof” (LI-COR, INC., priority 2014, dated 2020).

Series [1] concerns serum proteins including albumin (human serum albumin, bovine serum albumin, 5% FBS). Briefly: Binding of dye to serum proteins, incubation in 1×PBS and 4-12% Bis-Tris gel. The method, then: In SDS-PAGE and under non-reducing conditions, ovalbumin has a molecular weight of about 40 kDa, 45 kDa, 63 kDa and 72 kDa. Human serum albumin (HSA) has a molecular with ranging from about 66.6 kDa to about 66.4 kDa or lower under non-reducing conditions. HSA can migrate as an approximately 58-67 kDa band in SDS-PAGE under reducing conditions.
Human serum albumin, bovine serum albumin, 5% FBS and IRDye® 700DX carboxylate were incubated in 1×PBS for 2.5 h at room temperature. Methylene blue was also used as a dye known to bind to albumin and the other serum proteins. The samples were run on a 4-12% Bis-Tris gel. Ovalbumin served as the negative control. The proteins incubated with IRDye® 700DX carboxylate are on the left of the gel and methylene blue samples are on the right (FIG. 4A-B).

The nature of series [2]: Production of singlet oxygen, Singlet Oxygen Green Sensor, steady state fluorometer. The following applies: for singlet oxygen sensor fluorescence with scavenger sodium azide added: 32 J/cm^2. The method, then: Dyes and conjugated probes (IRDye 700DX carboxylate (700DX), EGF, RGD, and IgG conjugates) were evaluated for production of singlet oxygen using Singlet Oxygen Green Sensor (Life Technologies) and measured by a steady state fluorometer (ex 504 nm/em 525 nm). Controls (water or DMEM medium) and a positive control of methylene blue (MB) were included.
Measurements were made every second for 30 sec and averaged. Solution makeup: SOGS (1 μM), dye or probe addition (10 μM), Tris pH 7.5 ([…]) and deuterium oxide (50%). Light exposure=32 J/cm^2.

Series [3] can be described thus: Stability of IRDye 700DX carboxylate (signal intensity) in PBS and in buffers of pH 2.1-8.2. The series is classed as physicochemical. The following applies: 37° C. The method, then: Evaluation of the effect of pH on the stability of the carboxylate form of the dye was performed at room temperature and at 37° C. For comparison purposes a test of the stability at 37° C. while dissolved in 1×PBS was included. Mcllaine's buffer solution with constant ionic strength was used. […] When the dye was dissolved in various buffers with increasing pH (2.1-8.2) a loss in signal intensity initially occurred between pH 4 and 5 with losses progressively increasing down to pH 2.1 at room temperature (FIG. 3A). At 37° C. this loss initially occurred at a slightly higher pH between pH 5-6 with a progression similar to the tests done at room temperature (FIG. 3B).

Series [4] can be described thus: Clearance and biodistribution of IRDye 700DX carboxylate by fluorescence imaging. The series is classed as in vivo, nude mice. The procedure:
Experiments were performed to evaluate the clearance of IRDye® 700DX carboxylate in nude mice receiving 2 or 4 nmoles of the compound. This is the non-reactive form of the dye and the in vivo elimination kinetics can be used to determine the biodistribution of the dye and a subsequent dye-labeled conjugate. The results for both doses were very similar (only 4 nmole animal images are presented). Clearance appeared to be renal as noted in the dorsal (FIG. 8A) and ventral whole body views (FIG. 9A). The kidneys are visible throughout the dorsal series (FIG. 8A) and liver negligible in ventral series (FIG. 9A). […] A closer examination of the organs after excision is illustrated in FIG. 10B (2 nmole dose). […] All organs imaged (muscle, heart, lungs, liver, brain, spleen, intestine, and kidneys) were analyzed for signal corrected for area.

A further series deals with A431 cells. As to the kind of experiment: Unlabeled versus IRDye 700DX-labeled panitumumab with and without irradiation (Example 5). The series is classed as cell-based. The following applies: 10 minutes incubation. The method, then: Although the assumption is that the doses used in the assay described herein are too low to be a contributing factor in the cell death seen with IRDye® 700DX-labeled panitumumab, a small study was conducted to confirm that no therapeutic effect is due to the assay system. The test included the following four treatments: treatment 1 of unlabeled panitumumab and no irradiation (FIG. 11A), treatment 2 of IRDye® 700DX-labeled panitumumab and no irradiation (FIG. 11B), treatment 3 of unlabeled panitumumab and irradiation (FIG. 11C), and treatment 4 of IRDye® 700DX-labeled panitumumab and irradiation (FIG. 11D). The irradiation dose was 24 J/cm^2 with the probe incubation of 10 minutes and a concentration of 0.1 μM.

Setting [5] is: 2.5 h incubation, room temperature.

As for `CN(C)c1ccc2nc3ccc(=[N+](C)C)cc-3sc2c1` [methylene blue], the “binding to the serum proteins including albumin” value in series [1] (setting [5]) is “Signal is present”. Further, the “increase of singlet oxygen sensor fluorescence” value in series [2] (dye or probe 10 μM, SOGS 1 μM, light exposure 32 J/cm^2 (690 nm)) was “Three- to four-fold”. Further, in series [2], the “singlet oxygen sensor fluorescence with scavenger sodium azide added” value is on record as “reduction in fluorescence”.
Regarding “silicate(5-), bis[N— [3-[(hydroxy-.kappa.O)dimethylsilyl]propyl]-3-sulfo-N,N-bis(3-sulfopropyl)-1-propanaminiumato(4-)][6-[[[3-[(29H,31H-phthalocyanin-yl-.kappa.N29, .kappa.N30, .kappa.N31, .kappa.N32)oxy]propoxy]carbonyl]amino]hexanoato(3-)]-, sodium (1:5) [IRDye® 700DX carboxylate]”, the “loss of signal intensity (stability)” value in series [3] (1×PBS, 1 μM) is “very little loss of signal intensity”. In addition, the “pH at which a loss in signal intensity initially occurred” value in series [3] (buffers of increasing pH) is on record as 5-6 pH. For the same molecule, the “binding to the serum proteins including albumin” value in series [1] (1 h post-incubation) was “not detected”; in series [1] (setting [5]), “evident”. In addition, the “primary location of the dye in the kidney (longitudinal slice)” value in series [4] (4 nmole dose) is listed as “proximal tubules of the renal cortex”. Besides, in series [4] (24 hours after injection), the “signal in organs other than the liver and kidney” value was “little to no signal”. In series [4] (nude mice, 2 or 4 nmoles), the “retention in the liver” value is given as “no significant retention in the liver”. Moreover, the route of clearance entry in series [4] (nude mice, 2 or 4 nmoles, 5 minutes to 24 hours) is listed as “renal”. In addition, the “singlet oxygen sensor fluorescence with scavenger sodium azide added” value in series [2] was “reduction in fluorescence”.
Regarding “unlabeled panitumumab: unlabeled antibody that binds EGFR”, the “induction of cell death (morphology)” value in the series on A431 cells (irradiation 24 J/cm^2, 0.1 μM, 24 hours post-treatment) is “No measurable effect”; in the series with A431 cells (no irradiation, 0.1 μM, 24 hours), “No measurable effect”.
